Reference: paper PMC11494501, “AlphaFold Ensemble Competition Screens Enable Peptide Binder Design with Single-Residue Sensitivity” (ACS Chemical Biology, 2024)
Residues, ends and D or L forms follow the SMILES beside them. *: point of attachment. FITC = O=C1OC2(c3ccc(O)cc3Oc3cc(O)ccc32)c2ccc(NC(=S)*)cc21; βAla = NCCC(=O)O

Biological target: T1, Ub (Homo sapiens, UniProt P0CG48)
Assay: not given
Settings: read-out: dissociation constant of Ub:UIM-1 complex; cited from earlier work
Excerpt: We selected the UIM-1 sequence as an experimental model system because it is well characterized, having both the reported dissociation constant and NMR structure (pdb: 1q0w, Figure 1a,c). […] The UIM-1 sequence binds to Ub primarily through a series of hydrophobic contacts around the characteristic “AxxxS” UIM pattern of alanine and serine residues spaced four positions apart. Further, polar and salt bridge contacts may also stabilize the complex. […] The peptide concentration was mainta ...

| Compound | Kd [µM] |
| --- | --- |
| UIM-1: first UIM of the Vps27 protein; literature Kd from a slightly longer variant of the peptide | 277 |

Biological target: T1, Ub
Assay: Fluorescence polarization (FP) titration of labelled peptide against Ub
Settings: 1c (C-terminal Lys side-chain label) relative to 1a (N-terminal label), from FP Kd

| reduction in binding energy [kJ mol^–1] | Compound |
| --- | --- |
| 6.5 | CC[C@H](C)[C@H](NC(=O)[C@H](C)NC(=O)[C@H](CCCCN)NC(=O)[C@H](CCCNC(=N)N)NC(=O)[C@@H](NC(=O)[C@H](CC(C)C)NC(=O)[C@H](CCC(=O)O)NC(=O)[C@H](CCC(=O)O)NC(=O)[C@H](CCC(=O)O)NC(=O)[C@H](CC(=O)O)NC(=O)[C@H](CCC(=O)O)NC(=O)CNC(C)=O)[C@@H](C)CC)C(=O)N[C@@H](CCC(=O)O)C(=O)N[C@@H](CC(C)C)C(=O)N[C@@H](CO)C(=O)N[C@@H](CC(C)C)C(=O)N[C@@H](CCCCN)C(=O)N[C@@H](CCC(=O)O)C(=O)N[C@@H](CO)C(=O)NCC(=O)N[C@@H](CCCCNC(=S)Nc1ccc2c(c1)C(=O)OC21c2ccc(O)cc2Oc2cc(O)ccc21)C(N)=O [1c] (Ac-GEDEEELIRKAIELSLKESGK(FITC)-NH2) |

Same assay, conditions: relative to 1a (UIM-1), from FP Kd; positive = weaker binding

| Compound | ΔΔG for binding Ub [kcal/mol] |
| --- | --- |
| CC[C@H](C)[C@H](NC(=O)[C@H](C)NC(=O)[C@H](CCCCN)NC(=O)[C@H](CCCNC(=N)N)NC(=O)[C@H](C)NC(=O)[C@H](CC(C)C)NC(=O)[C@H](CCC(=O)O)NC(=O)[C@H](CCC(=O)O)NC(=O)[C@H](CCC(=O)O)NC(=O)[C@H](CC(=O)O)NC(=O)[C@H](CCC(=O)O)NC(=O)CNC(=O)CCNC(=S)Nc1ccc2c(c1)C(=O)OC21c2ccc(O)cc2Oc2cc(O)ccc21)C(=O)N[C@@H](CCC(=O)O)C(=O)N[C@@H](CC(C)C)C(=O)N[C@@H](CO)C(=O)N[C@@H](CC(C)C)C(=O)N[C@@H](CCCCN)C(=O)N[C@@H](CCC(=O)O)C(=O)N[C@@H](CO)C(=O)NCC(N)=O [3a] ({FITC-βAla}-GEDEEELARKAIELSLKESG-NH2) | 1.89 |
| CC[C@H](C)[C@H](NC(=O)[C@H](CC(C)C)NC(=O)[C@H](CCC(=O)O)NC(=O)[C@H](CCC(=O)O)NC(=O)[C@H](CCC(=O)O)NC(=O)[C@H](CC(=O)O)NC(=O)[C@H](CCC(=O)O)NC(=O)CNC(=O)CCNC(=S)Nc1ccc2c(c1)C(=O)OC21c2ccc(O)cc2Oc2cc(O)ccc21)C(=O)N[C@@H](CCCNC(=N)N)C(=O)N[C@@H](CCCCN)C(=O)N[C@@H](C)C(=O)N[C@@H](C)C(=O)N[C@@H](CCC(=O)O)C(=O)N[C@@H](CC(C)C)C(=O)N[C@@H](CO)C(=O)N[C@@H](CC(C)C)C(=O)N[C@@H](CCCCN)C(=O)N[C@@H](CCC(=O)O)C(=O)N[C@@H](CO)C(=O)NCC(N)=O [4a] ({FITC-βAla}-GEDEEELIRKAAELSLKESG-NH2) | 1.67 |
| CC[C@H](C)[C@H](NC(=O)[C@H](C)NC(=O)[C@H](CCCCN)NC(=O)[C@H](CCCNC(=N)N)NC(=O)[C@@H](NC(=O)[C@H](CC(C)C)NC(=O)[C@H](CCC(=O)O)NC(=O)[C@H](CCC(=O)O)NC(=O)[C@H](CCC(=O)O)NC(=O)[C@H](CC(=O)O)NC(=O)[C@H](CCC(=O)O)NC(=O)CNC(=O)CCNC(=S)Nc1ccc2c(c1)C(=O)OC21c2ccc(O)cc2Oc2cc(O)ccc21)[C@@H](C)CC)C(=O)N[C@@H](CCC(=O)O)C(=O)N[C@@H](C)C(=O)N[C@@H](CO)C(=O)N[C@@H](CC(C)C)C(=O)N[C@@H](CCCCN)C(=O)N[C@@H](CCC(=O)O)C(=O)N[C@@H](CO)C(=O)NCC(N)=O [5a] ({FITC-βAla}-GEDEEELIRKAIEASLKESG-NH2) | 0.239 |
| CC[C@H](C)[C@H](NC(=O)[C@H](C)NC(=O)[C@H](CCCCN)NC(=O)[C@H](CCCNC(=N)N)NC(=O)[C@@H](NC(=O)[C@H](CCC(=O)O)NC(=O)[C@H](CCC(=O)O)NC(=O)[C@H](CCC(=O)O)NC(=O)[C@H](CCC(=O)O)NC(=O)[C@H](CC(=O)O)NC(=O)[C@H](CCC(=O)O)NC(=O)CNC(=O)CCNC(=S)Nc1ccc2c(c1)C(=O)OC21c2ccc(O)cc2Oc2cc(O)ccc21)[C@@H](C)CC)C(=O)N[C@@H](CCC(=O)O)C(=O)N[C@@H](CC(C)C)C(=O)N[C@@H](CO)C(=O)N[C@@H](CC(C)C)C(=O)N[C@@H](CCCCN)C(=O)N[C@@H](CCC(=O)O)C(=O)N[C@@H](CO)C(=O)NCC(N)=O [7a] ({FITC-βAla}-GEDEEEEIRKAIELSLKESG-NH2) | 0.669 |
| CC[C@H](C)[C@H](NC(=O)[C@H](C)NC(=O)[C@H](CCCCN)NC(=O)[C@H](CCCNC(=N)N)NC(=O)[C@@H](NC(=O)[C@H](CC(C)C)NC(=O)[C@H](CCC(=O)O)NC(=O)[C@H](CCC(=O)O)NC(=O)[C@H](CCC(=O)O)NC(=O)[C@H](CC(=O)O)NC(=O)[C@H](CCC(=O)O)NC(=O)CNC(=O)CCNC(=S)Nc1ccc2c(c1)C(=O)OC21c2ccc(O)cc2Oc2cc(O)ccc21)[C@@H](C)CC)C(=O)N[C@@H](CCC(=O)O)C(=O)N[C@@H](CCC(=O)O)C(=O)N[C@@H](CO)C(=O)N[C@@H](CC(C)C)C(=O)N[C@@H](CCCCN)C(=O)N[C@@H](CCC(=O)O)C(=O)N[C@@H](CO)C(=O)NCC(N)=O [10a] ({FITC-βAla}-GEDEEELIRKAIEESLKESG-NH2) | -0.072 |

Next, values leading:

| ΔΔG for binding Ub [kcal/mol] | Compound |
| --- | --- |
| 1.12 | CC[C@H](C)[C@H](NC(=O)[C@H](C)NC(=O)[C@H](CCCCN)NC(=O)[C@H](CCCNC(=N)N)NC(=O)[C@@H](NC(=O)[C@H](CC(C)C)NC(=O)[C@H](CCC(=O)O)NC(=O)[C@H](CCC(=O)O)NC(=O)[C@H](CCC(=O)O)NC(=O)[C@H](CC(=O)O)NC(=O)[C@H](CCC(=O)O)NC(=O)CNC(=O)CCNC(=S)Nc1ccc2c(c1)C(=O)OC21c2ccc(O)cc2Oc2cc(O)ccc21)[C@@H](C)CC)C(=O)N[C@@H](CCC(=O)O)C(=O)N[C@@H](CC(C)C)C(=O)N[C@@H](CO)C(=O)N[C@@H](C)C(=O)N[C@@H](CCCCN)C(=O)N[C@@H](CCC(=O)O)C(=O)N[C@@H](CO)C(=O)NCC(N)=O [6a] ({FITC-βAla}-GEDEEELIRKAIELSAKESG-NH2) |
| 0.502 | CC[C@H](C)[C@H](NC(=O)[C@H](C)NC(=O)[C@H](CCCCN)NC(=O)[C@H](CCCNC(=N)N)NC(=O)[C@H](Cc1ccccc1)NC(=O)[C@H](CC(C)C)NC(=O)[C@H](CCC(=O)O)NC(=O)[C@H](CCC(=O)O)NC(=O)[C@H](CCC(=O)O)NC(=O)[C@H](CC(=O)O)NC(=O)[C@H](CCC(=O)O)NC(=O)CNC(=O)CCNC(=S)Nc1ccc2c(c1)C(=O)OC21c2ccc(O)cc2Oc2cc(O)ccc21)C(=O)N[C@@H](CCC(=O)O)C(=O)N[C@@H](CC(C)C)C(=O)N[C@@H](CO)C(=O)N[C@@H](CC(C)C)C(=O)N[C@@H](CCCCN)C(=O)N[C@@H](CCC(=O)O)C(=O)N[C@@H](CO)C(=O)NCC(N)=O [8a] ({FITC-βAla}-GEDEEELFRKAIELSLKESG-NH2) |
| 0.693 | CC[C@H](C)[C@H](NC(=O)[C@H](CC(C)C)NC(=O)[C@H](CCC(=O)O)NC(=O)[C@H](CCC(=O)O)NC(=O)[C@H](CCC(=O)O)NC(=O)[C@H](CC(=O)O)NC(=O)[C@H](CCC(=O)O)NC(=O)CNC(=O)CCNC(=S)Nc1ccc2c(c1)C(=O)OC21c2ccc(O)cc2Oc2cc(O)ccc21)C(=O)N[C@@H](CCCNC(=N)N)C(=O)N[C@@H](CCCCN)C(=O)N[C@@H](C)C(=O)N[C@@H](CC(C)C)C(=O)N[C@@H](CCC(=O)O)C(=O)N[C@@H](CC(C)C)C(=O)N[C@@H](CO)C(=O)N[C@@H](CC(C)C)C(=O)N[C@@H](CCCCN)C(=O)N[C@@H](CCC(=O)O)C(=O)N[C@@H](CO)C(=O)NCC(N)=O [9a] ({FITC-βAla}-GEDEEELIRKALELSLKESG-NH2) |
| 1.08 | CC[C@H](C)[C@H](NC(=O)[C@H](C)NC(=O)[C@H](CCCCN)NC(=O)[C@H](CCCNC(=N)N)NC(=O)[C@@H](NC(=O)[C@H](CC(C)C)NC(=O)[C@H](CCC(=O)O)NC(=O)[C@H](CCC(=O)O)NC(=O)[C@H](CCC(=O)O)NC(=O)[C@H](CC(=O)O)NC(=O)[C@H](CCC(=O)O)NC(=O)CNC(=O)CCNC(=S)Nc1ccc2c(c1)C(=O)OC21c2ccc(O)cc2Oc2cc(O)ccc21)[C@@H](C)CC)C(=O)N[C@@H](CCC(=O)O)C(=O)N[C@@H](CC(C)C)C(=O)N[C@@H](CO)C(=O)N[C@@H](CCC(=O)O)C(=O)N[C@@H](CCCCN)C(=O)N[C@@H](CCC(=O)O)C(=O)N[C@@H](CO)C(=O)NCC(N)=O [11a] ({FITC-βAla}-GEDEEELIRKAIELSEKESG-NH2) |

Same assay, conditions: relative to 1a, from FP Kd

| Compound | additional binding energy [kJ mol^–1] |
| --- | --- |
| CC[C@H](C)[C@H](NC(=O)[C@H](C)NC(=O)[C@H](CCCCN)NC(=O)[C@H](CCCNC(=N)N)NC(=O)[C@@H](NC(=O)[C@H](CC(C)C)NC(=O)[C@H](CCC(=O)O)NC(=O)[C@H](CCC(=O)O)NC(=O)[C@H](CCC(=O)O)NC(=O)[C@H](CC(=O)O)NC(=O)[C@H](CCC(=O)O)NC(=O)CNC(=O)CCNC(=S)Nc1ccc2c(c1)C(=O)OC21c2ccc(O)cc2Oc2cc(O)ccc21)[C@@H](C)CC)C(=O)N[C@@H](CCC(=O)O)C(=O)N[C@@H](CCC(=O)O)C(=O)N[C@@H](CO)C(=O)N[C@@H](CC(C)C)C(=O)N[C@@H](CCCCN)C(=O)N[C@@H](CCC(=O)O)C(=O)N[C@@H](CO)C(=O)NCC(N)=O [10a] ({FITC-βAla}-GEDEEELIRKAIEESLKESG-NH2) | 0.3 |
